Two molecules from patent US11014902B2, “MYC G-quadruplex stabilizing small molecules and their use” (The United States of America, as represented by the …, priority 2015, dated 2021) can be followed below.

The subject of assay [1] is c-Myc protein in H157 cells. Description: c-Myc protein expression by Western blot, H157. Type of assay: cell-based, human. The note with it: 10 μM. As to the method: The effect of Compound 23 on the expression of c-Myc protein in the human lung cancer cell lines H1299 and H157 was also assayed. H1299 and H157 cells were treated with 10 μM Compound 23 and c-Myc protein expression levels quantified by Western blot. In Compound 23-treated H1299 cells, c-Myc protein expression levels were approximately 55% compared to untreated control cells. In Compound 23-treated H157 cells, c-Myc protein expression levels were approximately 74% compared to untreated control cells.
For orientation: A western blot detects proteins with antibodies after separation by electrophoresis.

Assay [2] deals with c-MYC expression in L363 xenograft tumors. Put plainly: Pharmacodynamic evaluation in L363 subcutaneous xenografts (western blot). Type of assay: in vivo. The following applies: single dose 19 mg/kg or 38 mg/kg IP; tumors harvested 2 and 8 hours; nude mice with L363 xenografts. As to the method: The capacity of Compound 23 to inhibit c-MYC expression in tumor was evaluated in nude mice bearing subcutaneous xenografts of the human multiple myeloma cell line L363. In this assay, tumors from two tumor-bearing mice were harvested 2 and 8 hours after a single dose of Compound 23 at 19 mg/kg or 38 mg/kg (administered IP).

Assay [3] has as its target c-MYC G4 DNA (biotin-labeled Pu22 G-quadruplex). Put plainly: Surface plasmon resonance (SPR). Type of assay: binding. The note with it: SPR, 25° C.; read-out: equilibrium dissociation constant (Kd). As to the method:
In order to quantitatively assess the binding affinity of Compound 1 with the c-MYC G4, surface plasmon resonance (SPR) experiments (De Crescenzo, et al., Cell Mol Bioeng 2008, 1, 204) were performed using a biotinylated c-MYC G4 oligonucleotide. The oligonucleotide was immobilized to a streptavidin-coated chip, and binding was measured as a function of concentration. (FIG. 2). […] Furthermore, Compound 1 interacts with quadruplex DNA through a reversible binding interaction, and rapid, complete dissociation can be observed in the sensogram (FIG. 2C).
SPR experiments were performed with a Biacore T200 (GE Healthcare). […] The c-MYC DNA was then captured (FC2: 1245 Ru) on a Series S Sensor CM5 Chip (GE Healthcare) with amine-coupled Neutravidin (FC1: 4466 Ru, FC2: 5458 Ru). Single Cycle Kinetics (SCK) experiments were carried out with five injections of increasing concentration of analyte solution, which was prepared by a three-fold serial dilution of compound with buffer (10 mM Tris pH 7.5, 100 mM KCl, 3 mM EDTA) containing 3% DMSO. Binding analysis was conducted at a flow rate of 30 μL/min at 25° C. In each run, the association phase and the subsequent dissociation phase were monitored for 1 min and 10 min, respectively. Prior to each compound injection, three buffer injections were made. […]
For orientation: Surface plasmon resonance follows binding to a sensor surface in real time, without labels.

In assay [4] the test system is mutant sequence incapable of G4 formation. Type of assay: biochemical. The following applies: concentrations up to 100 μM.
For a further assay, the system named is c-Myc protein. Put plainly: c-Myc protein translation in myeloma cells (Western blot). Type of assay: cell-based, human. The following applies: 10 μM, maintained over 72 hours. The protocol: Since two thirds of multiple myeloma cases involve deregulated c-MYC expression (Kuehl and Bergsagel, Blood 2012, 120, 2351; Shou, et al., Proc Natl Acad Sci USA 2000, 97, 228), we elected to evaluate the cell viability effects of Compound 1 in a multiple myeloma model. […] This suppression was maintained over 72 hours, which is notable given the characteristic rapid replenishment of the protein—a phenomenon that complicates targeting c-Myc at the protein level (FIG. 4C). This effect was maintained across a genetically diverse set of 4 multiple myeloma lines. We observed decreases in c-MYC translation in all lines tested, and this effect also correlated with decreases in viability (FIG. 4D).
Cell pellets/tissue were homogenized and lysed in RIPA buffer on ice for 1 h. Protein was quantitated by BCA, and equal protein was loaded onto 4-12% Bis-Tris Gels (Novex), electrophoresed at 150 V for 75 min to obtain sufficient separation, and transferred via the iBlot system (Life Technologies). Successful transfer and uniform loading was confirmed by Ponceau S staining (Thermo Scientific). Blots were blocked in 10% dry milk in TBST, incubated with primary monoclonal antibodies in 5% BSA at concentrations designated by the manufacturer, and gently rotated at 4° C. overnight. […]

Regarding `Cc1oc2ccc(O)c(CN3CCCCCC3)c2c1C(=O)Nc1ccc(C(F)(F)F)cc1` [Compound 23], the “c-Myc protein expression levels compared to untreated control cells” value in assay [1] is “approximately 74%”. In addition, the “c-MYC expression levels in tumors compared to vehicle control tumors” value in assay [2] is recorded as “decreased c-MYC expression levels”.

In the case of `Cc1ccc(NC(=O)c2c(C)oc3ccc(O)c(CN4CCCCCC4)c23)cc1` [Compound 1], the Kd in assay [3] was found to be 4.5 ± 1.4 µM. The “effect on PCR amplification” value in assay [4] is given as “no effect”. Further, in the assay with c-Myc protein, the c-Myc protein translation result is recorded as “significantly inhibited”.

As usually defined, the Kd is the equilibrium constant for the complex coming apart.
